In PMC10175918 (Communications Biology, 2023):
“Also recorded” adds a separate entry of the source. Like-named read-outs stand apart in the source and are kept apart here. Values belong to the compound of their own block, whether it stands above or below them.

Experiments:
Assay in all cases: TGFα-shedding assay-based GPCR screening with chimeric Gα subunit proteins
Type in all cases: cell-based
[1] = biological target: 348 GPCRs (Homo sapiens, UniProt P43220); settings: 10µM, Favipiravir 100μM
348 GPCRs (Homo sapiens, UniProt P43220), sequence (P43220 24-463): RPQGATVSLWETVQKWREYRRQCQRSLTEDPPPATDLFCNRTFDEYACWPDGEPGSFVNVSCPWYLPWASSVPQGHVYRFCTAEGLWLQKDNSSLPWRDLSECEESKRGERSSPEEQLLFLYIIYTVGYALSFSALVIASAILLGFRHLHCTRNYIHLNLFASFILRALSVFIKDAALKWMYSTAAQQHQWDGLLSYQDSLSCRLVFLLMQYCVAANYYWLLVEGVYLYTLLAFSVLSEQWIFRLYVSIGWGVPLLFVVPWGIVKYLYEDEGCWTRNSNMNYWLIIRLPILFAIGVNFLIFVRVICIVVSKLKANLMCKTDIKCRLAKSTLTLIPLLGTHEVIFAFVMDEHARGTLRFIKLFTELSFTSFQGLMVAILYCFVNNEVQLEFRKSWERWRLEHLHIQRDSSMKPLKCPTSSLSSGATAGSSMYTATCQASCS

[2] = biological target: T1, 348 GPCRs (Homo sapiens, UniProt P35408); settings: 10µM, Favipiravir 100μM
T1 construct: expressed in transfected cells; host or cells: HEK293A
T1 sequence (P35408 whole entry): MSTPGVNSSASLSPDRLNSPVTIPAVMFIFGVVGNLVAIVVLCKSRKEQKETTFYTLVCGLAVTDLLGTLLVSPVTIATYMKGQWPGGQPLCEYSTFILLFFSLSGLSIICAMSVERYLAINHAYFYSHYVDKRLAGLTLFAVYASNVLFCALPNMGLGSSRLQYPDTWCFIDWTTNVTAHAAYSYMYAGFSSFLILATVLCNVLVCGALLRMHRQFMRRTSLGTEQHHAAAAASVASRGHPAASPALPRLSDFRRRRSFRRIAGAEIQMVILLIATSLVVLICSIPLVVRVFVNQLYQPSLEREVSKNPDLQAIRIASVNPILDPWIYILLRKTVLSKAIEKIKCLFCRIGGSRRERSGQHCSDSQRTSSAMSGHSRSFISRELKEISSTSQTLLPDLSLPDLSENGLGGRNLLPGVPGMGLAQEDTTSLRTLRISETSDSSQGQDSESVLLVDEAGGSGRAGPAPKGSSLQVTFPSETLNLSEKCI

[3] = biological target: T2, 348 GPCRs (Homo sapiens, UniProt P47900); settings: GPCR P2Y1 (purinergic receptor P2Y, G-protein coupled, 1)
T2 construct: expressed in transfected cells; host or cells: HEK293A
T2 sequence (P47900 whole entry): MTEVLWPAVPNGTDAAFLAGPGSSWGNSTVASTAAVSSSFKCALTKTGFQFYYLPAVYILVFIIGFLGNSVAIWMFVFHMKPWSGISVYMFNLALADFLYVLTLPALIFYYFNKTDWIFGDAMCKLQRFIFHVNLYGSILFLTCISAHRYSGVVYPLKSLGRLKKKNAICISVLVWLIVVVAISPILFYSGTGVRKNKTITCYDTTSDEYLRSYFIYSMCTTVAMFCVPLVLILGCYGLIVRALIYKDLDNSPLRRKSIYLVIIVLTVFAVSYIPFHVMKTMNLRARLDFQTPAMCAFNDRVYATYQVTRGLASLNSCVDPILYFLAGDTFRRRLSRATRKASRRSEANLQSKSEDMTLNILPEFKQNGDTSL

[4] = biological target: T3, 348 GPCRs (Homo sapiens, UniProt P24530); settings: 10µM, Favipiravir 100μM
T3 construct: expressed in transfected cells; host or cells: HEK293A
T3 sequence (P24530 27-442): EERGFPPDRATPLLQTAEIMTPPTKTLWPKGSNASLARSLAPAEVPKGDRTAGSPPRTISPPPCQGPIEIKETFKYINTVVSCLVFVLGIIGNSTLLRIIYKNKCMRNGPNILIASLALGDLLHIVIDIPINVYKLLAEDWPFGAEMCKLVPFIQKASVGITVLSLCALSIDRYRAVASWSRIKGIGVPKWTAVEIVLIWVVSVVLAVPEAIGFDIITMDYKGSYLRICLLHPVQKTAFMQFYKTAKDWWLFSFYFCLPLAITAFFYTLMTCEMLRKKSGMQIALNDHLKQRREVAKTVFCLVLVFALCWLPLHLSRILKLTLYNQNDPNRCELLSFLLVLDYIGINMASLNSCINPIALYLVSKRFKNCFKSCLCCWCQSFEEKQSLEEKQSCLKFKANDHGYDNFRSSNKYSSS

[5] = biological target: 348 GPCRs (Homo sapiens, UniProt P21918); settings: 10µM, Favipiravir 100μM
348 GPCRs (Homo sapiens, UniProt P21918), sequence (P21918 whole entry): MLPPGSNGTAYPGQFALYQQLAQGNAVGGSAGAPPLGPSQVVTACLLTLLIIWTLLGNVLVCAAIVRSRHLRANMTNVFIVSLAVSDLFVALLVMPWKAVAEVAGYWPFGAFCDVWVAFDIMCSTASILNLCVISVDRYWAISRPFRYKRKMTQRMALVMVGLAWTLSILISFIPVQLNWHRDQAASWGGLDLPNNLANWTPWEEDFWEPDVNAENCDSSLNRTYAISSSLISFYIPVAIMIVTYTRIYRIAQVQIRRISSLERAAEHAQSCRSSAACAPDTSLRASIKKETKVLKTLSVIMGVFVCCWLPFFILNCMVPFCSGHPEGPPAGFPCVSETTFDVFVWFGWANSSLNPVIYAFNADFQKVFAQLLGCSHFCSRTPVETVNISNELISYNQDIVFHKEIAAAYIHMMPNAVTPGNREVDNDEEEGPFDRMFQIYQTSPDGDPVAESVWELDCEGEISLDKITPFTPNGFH

[6] = tested on: 348 GPCRs
[7] = biological target: T4, 348 GPCRs (Homo sapiens, UniProt Q13324)
T4 construct: expressed in transfected cells; host or cells: HEK293A
T4 sequence (Q13324 1-411): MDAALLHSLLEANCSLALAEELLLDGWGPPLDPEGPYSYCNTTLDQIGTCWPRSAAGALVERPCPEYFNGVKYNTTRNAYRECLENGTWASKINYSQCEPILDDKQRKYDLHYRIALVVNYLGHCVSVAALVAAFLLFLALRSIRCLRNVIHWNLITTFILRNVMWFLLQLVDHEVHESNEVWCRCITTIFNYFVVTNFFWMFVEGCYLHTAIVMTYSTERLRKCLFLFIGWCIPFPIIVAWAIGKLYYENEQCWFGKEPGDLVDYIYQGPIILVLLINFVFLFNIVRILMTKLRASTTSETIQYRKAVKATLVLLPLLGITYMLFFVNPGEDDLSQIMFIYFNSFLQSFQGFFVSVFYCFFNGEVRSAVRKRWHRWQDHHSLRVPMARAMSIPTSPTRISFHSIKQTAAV

[8] = biological target: T5, 348 GPCRs (Homo sapiens, UniProt Q96CH1); settings: 10µM, Favipiravir 100μM
T5 construct: expressed in transfected cells; host or cells: HEK293A
T5 sequence (Q96CH1 whole entry): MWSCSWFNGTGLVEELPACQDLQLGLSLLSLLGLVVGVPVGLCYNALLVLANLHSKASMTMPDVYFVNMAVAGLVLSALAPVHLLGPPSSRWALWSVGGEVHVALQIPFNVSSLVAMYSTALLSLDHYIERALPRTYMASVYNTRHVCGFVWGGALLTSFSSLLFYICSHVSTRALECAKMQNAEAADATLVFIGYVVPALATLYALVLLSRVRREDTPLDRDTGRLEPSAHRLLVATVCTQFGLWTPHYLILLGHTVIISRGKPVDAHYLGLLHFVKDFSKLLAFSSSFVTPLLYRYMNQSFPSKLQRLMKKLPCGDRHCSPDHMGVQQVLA

[9] = biological target: T6, 348 GPCRs (Homo sapiens, UniProt P25929); settings: 10µM, Favipiravir 100μM
T6 construct: expressed in transfected cells; host or cells: HEK293A
T6 sequence (P25929 1-384): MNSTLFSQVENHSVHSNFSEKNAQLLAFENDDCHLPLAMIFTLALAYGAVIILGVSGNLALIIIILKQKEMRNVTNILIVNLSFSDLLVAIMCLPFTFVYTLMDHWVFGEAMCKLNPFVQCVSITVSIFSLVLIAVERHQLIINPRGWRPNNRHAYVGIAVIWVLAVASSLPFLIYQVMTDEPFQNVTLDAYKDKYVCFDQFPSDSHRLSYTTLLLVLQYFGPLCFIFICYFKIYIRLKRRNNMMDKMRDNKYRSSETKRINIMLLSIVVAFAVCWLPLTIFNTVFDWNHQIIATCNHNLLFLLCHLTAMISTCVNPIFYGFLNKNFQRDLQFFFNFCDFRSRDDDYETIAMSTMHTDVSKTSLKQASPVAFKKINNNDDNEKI

[10] = biological target: T7, 348 GPCRs (Homo sapiens, UniProt Q9NYW4); settings: 10µM, Favipiravir 100μM
T7 construct: expressed in transfected cells; host or cells: HEK293A
T7 sequence (Q9NYW4 1-299): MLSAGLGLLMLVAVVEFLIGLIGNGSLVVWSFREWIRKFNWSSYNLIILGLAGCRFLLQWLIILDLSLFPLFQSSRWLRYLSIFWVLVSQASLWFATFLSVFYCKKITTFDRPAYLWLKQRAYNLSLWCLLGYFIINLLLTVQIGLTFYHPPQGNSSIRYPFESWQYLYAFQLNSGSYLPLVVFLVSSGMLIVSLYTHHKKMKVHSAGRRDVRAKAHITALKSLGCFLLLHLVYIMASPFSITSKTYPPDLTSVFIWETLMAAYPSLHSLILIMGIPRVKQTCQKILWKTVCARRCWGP

[11] = biological target: T8, 348 GPCRs (Homo sapiens, UniProt P48146); settings: 10µM, Favipiravir 100μM
T8 construct: expressed in transfected cells; host or cells: HEK293A
T8 sequence (P48146 whole entry): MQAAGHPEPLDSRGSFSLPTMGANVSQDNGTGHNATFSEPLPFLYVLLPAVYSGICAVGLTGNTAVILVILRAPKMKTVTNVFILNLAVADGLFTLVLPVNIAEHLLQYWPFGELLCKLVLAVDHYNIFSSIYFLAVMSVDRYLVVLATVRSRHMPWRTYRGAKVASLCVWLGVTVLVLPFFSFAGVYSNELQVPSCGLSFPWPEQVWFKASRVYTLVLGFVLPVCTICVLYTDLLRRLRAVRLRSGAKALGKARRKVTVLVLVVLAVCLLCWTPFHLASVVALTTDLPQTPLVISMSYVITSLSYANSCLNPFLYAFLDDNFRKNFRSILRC

[12] = biological target: T9, 348 GPCRs (Homo sapiens, UniProt Q15722); settings: 10µM, Favipiravir 100μM
T9 construct: expressed in transfected cells; host or cells: HEK293A
T9 sequence (Q15722 whole entry): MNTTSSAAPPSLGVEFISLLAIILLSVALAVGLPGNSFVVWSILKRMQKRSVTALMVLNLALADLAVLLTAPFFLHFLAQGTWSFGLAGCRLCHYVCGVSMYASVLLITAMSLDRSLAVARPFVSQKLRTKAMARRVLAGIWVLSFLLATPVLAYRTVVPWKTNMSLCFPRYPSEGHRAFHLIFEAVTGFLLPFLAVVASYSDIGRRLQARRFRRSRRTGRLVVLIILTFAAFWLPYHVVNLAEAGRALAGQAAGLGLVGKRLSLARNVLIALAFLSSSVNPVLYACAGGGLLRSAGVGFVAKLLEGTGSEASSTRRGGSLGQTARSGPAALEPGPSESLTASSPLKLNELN

[13] = GLP1R (glucagon-like peptide 1 receptor), read-out: % GPCR activation compared to TPA
[14] = EP4 (prostaglandin E receptor 4), read-out: % GPCR activation compared to TPA
[15] = EDNRB (endothelin receptor type B), read-out: % GPCR activation compared to TPA
[16] = D5 (dopamine receptor D5), read-out: % GPCR activation compared to TPA
[17] = EP3 iso6 (prostaglandin E receptor 3 iso6), 10µM, Favipiravir 100μM
[18] = GPCR GPR68 long (G protein-coupled receptor 68 long), 10µM
[19] = GPCR LTB4R2B (leukotriene B4 receptor 2), 10µM
[20] = GPCR P2Y13 short (purinergic receptor P2Y, G-protein coupled, 13 short), 10µM
[21] = GPR17 short (G protein-coupled receptor 17 short), 10µM, Favipiravir 100μM
[22] = GPCR CRHR2 (corticotropin releasing hormone receptor 2), read-out: % GPCR activation compared to TPA
[23] = GPR146 (G protein-coupled receptor 146), read-out: % GPCR activation compared to TPA
[24] = NPY1R (neuropeptide Y receptor Y1), read-out: % GPCR activation compared to TPA
[25] = TAS2R5 (taste receptor, type 2, member 5), read-out: % GPCR activation compared to TPA
[26] = NPBWR2 (neuropeptides B and W receptor 2), read-out: % GPCR activation compared to TPA
[27] = LTB4R (leukotriene B4 receptor), read-out: % GPCR activation compared to TPA
[28] = read-out: % GPCR activation compared to TPA, GLP1R (glucagon-like peptide 1 receptor)
[29] = read-out: % GPCR activation compared to TPA, EP4 (prostaglandin E receptor 4)
[30] = read-out: % GPCR activation compared to TPA, EDNRB (endothelin receptor type B)
[31] = read-out: % GPCR activation compared to TPA, D5 (dopamine receptor D5)
[32] = read-out: % GPCR activation compared to TPA, GPCR CRHR2 (corticotropin releasing hormone receptor 2)
[33] = read-out: % GPCR activation compared to TPA, GPR146 (G protein-coupled receptor 146)
[34] = read-out: % GPCR activation compared to TPA, NPY1R (neuropeptide Y receptor Y1)
[35] = read-out: % GPCR activation compared to TPA, TAS2R5 (taste receptor, type 2, member 5)
[36] = read-out: % GPCR activation compared to TPA, NPBWR2 (neuropeptides B and W receptor 2)
[37] = read-out: % GPCR activation compared to TPA, LTB4R (leukotriene B4 receptor)

- activation at 10 µM [1, 13]: -2.54%
- activation at 10 µM [2, 14]: -1.55%
- % GPCR activation compared to TPA ([3]; 100μM): 0.4296%
- activation at 100 µM [4, 15]: -3.11%
- activation at 100 µM [5, 16]: 3.39%
- activation at 100 µM ([7]; GPCR CRHR2 (corticotropin releasing hormone receptor 2), 100μM, read-out: % GPCR activation compared to TPA): -0.529%
- activation at 100 µM [8, 23]: 0.0656%
- activation at 100 µM [9, 24]: -1.15%
- activation at 100 µM [10, 25]: 2.49%
- activation at 10 µM [11, 26]: -4.53%
- activation at 10 µM [12, 27]: -0.299%
Structure (SMILES): NC(=O)c1nc(F)cnc1O [favipiravir, 6-fluoro-3-hydroxy-2-pyrazinecarboxamide]
- % GPCR activation compared to TPA [6, 17]: 0.2801%
- % GPCR activation compared to TPA ([6]; GPCR GPR68 long (G protein-coupled receptor 68 long), 100μM): 5.02%
- % GPCR activation compared to TPA ([6]; GPCR LTB4R2B (leukotriene B4 receptor 2), 100μM): -0.02753%
- % GPCR activation compared to TPA ([6]; GPCR P2Y13 short (purinergic receptor P2Y, G-protein coupled, 13 short), 100μM): 1.698%
- % GPCR activation compared to TPA [6, 21]: -0.5013%

- activation at 10 µM [1, 13]: -2.83%
- activation at 10 µM [2, 14]: 0.931%
- % GPCR activation compared to TPA ([3]; 10µM): -11.8258%
- activation at 100 µM [4, 15]: -3.6%
- activation at 100 µM [5, 16]: -1.18%
- activation at 10 µM [7, 22]: -0.005%
- activation at 100 µM [8, 23]: -4.56%
- activation at 100 µM [9, 24]: -1.55%
- activation at 100 µM [10, 25]: -0.247%
- activation at 10 µM [11, 26]: -2.92%
- activation at 10 µM [12, 27]: -0.697%
Structure (SMILES): CC(C)C(=O)OC[C@H]1O[C@@H](n2ccc(NO)nc2=O)[C@H](O)[C@@H]1O [molnupiravir]
- % GPCR activation compared to TPA [6, 17]: -0.792%
- % GPCR activation compared to TPA [6, 18]: -159.537%
- % GPCR activation compared to TPA [6, 19]: -0.2056%
- % GPCR activation compared to TPA [6, 20]: -3.484%
- % GPCR activation compared to TPA [6, 21]: 0.1735%

The next lines start with the compound.

Structure (SMILES): N#C[C@@]1(c2ccc3c(N)ncnn23)O[C@H](CO)[C@@H](O)[C@H]1O [GS441524]
- activation at 10 µM [1, 13]: -1.52%
- activation at 10 µM [2, 14]: -2.87%
- % GPCR activation compared to TPA ([3]; 10µM): -0.4592%
- activation at 100 µM [4, 15]: -4.24%
- activation at 100 µM [5, 16]: 1.11%
- % GPCR activation compared to TPA [6, 17]: -0.4587%
- % GPCR activation compared to TPA [6, 18]: 3.274%
- % GPCR activation compared to TPA [6, 19]: -0.1822%
- % GPCR activation compared to TPA [6, 20]: 0.9471%
- % GPCR activation compared to TPA [6, 21]: 2.36%
- activation at 10 µM [7, 22]: 0.656%
- activation at 100 µM [8, 23]: 0.00864%
- activation at 100 µM [9, 24]: -0.88%
- activation at 100 µM [10, 25]: 0.212%
- activation at 10 µM [11, 26]: -1.66%
- activation at 10 µM [12, 27]: 0.849%

Structure (SMILES): CCC(CC)COC(=O)[C@H](C)N[P@](=O)(OC[C@H]1O[C@@](C#N)(c2ccc3c(N)ncnn23)[C@H](O)[C@@H]1O)Oc1ccccc1 [remdesivir]
- activation at 10 µM [1, 28]: -0.928%
- activation at 10 µM [2, 29]: 4.74%
- % GPCR activation compared to TPA ([3]; 10µM): 11.0377%
- activation at 100 µM [4, 30]: -2.2%
- activation at 100 µM [5, 31]: 7.06%
- GPCR activation in screening against 348 GPCRs ([6]; 10 μM remdesivir, molnupiravir, 100 μM favipiravir, chimeric Gα): selectively activate UTS2R; also recorded: selective activator for the urotensin-II receptor (UTS2R)
- % GPCR activation compared to TPA [6, 17]: 1.469%
- % GPCR activation compared to TPA [6, 18]: -2.927%
- % GPCR activation compared to TPA [6, 19]: -0.9744%
- % GPCR activation compared to TPA [6, 20]: 2.55%
- effect on adenosine receptors ([6]; GPCR assay, adenosine receptors): no effect on adenosine receptors
- % GPCR activation compared to TPA [6, 21]: 2.96%
- activation at 10 µM [7, 32]: 1.58%
- activation at 100 µM [8, 33]: 1.36%
- activation at 100 µM [9, 34]: 0.0788%
- activation at 100 µM [10, 35]: 3.92%
- activation at 10 µM [11, 36]: -4.48%
- activation at 10 µM [12, 37]: -0.224%

Structure (SMILES): CC(C)OC(=O)[C@H](C)N[P@](=O)(OC[C@H]1O[C@@H](n2ccc(=O)[nH]c2=O)[C@](C)(F)[C@@H]1O)Oc1ccccc1 [sofosbuvir]
- activation at 10 µM [1, 28]: -2.54%
- activation at 10 µM [2, 29]: 0.58%
- % GPCR activation compared to TPA ([3]; 10µM): -4.632%
- activation at 100 µM [4, 30]: -2.57%
- activation at 100 µM [5, 31]: -1.22%
- % GPCR activation compared to TPA [6, 17]: -2.666%
- % GPCR activation compared to TPA [6, 18]: -162.099%
- % GPCR activation compared to TPA [6, 19]: 1.863%
- % GPCR activation compared to TPA [6, 20]: -2.679%
- % GPCR activation compared to TPA [6, 21]: 1.814%
- activation at 10 µM [7, 32]: 2.1%
- activation at 100 µM [8, 33]: -6.46%
- activation at 100 µM [9, 34]: -0.539%
- activation at 100 µM [10, 35]: -1.2%
- activation at 10 µM [11, 36]: -2.75%
- activation at 10 µM [12, 37]: 0.62%
